Literature values, collected in patent publication US7399616B2, “Enzymatic synthesis of Nα-acyl-L-arginine esters” (Laboratorios Miret, S.A., priority 2002, dated 2008).

Legend:
[1] = animals and humans
[2] = rats; metabolised into naturally-occurring amino acids and lauric acid, excreted as carbon dioxide and urea
[3] = tested on: microorganisms; conditions: acts over external and cytoplasmatic membrane and into cytoplasmatic medium; depends on kind of microorganism and exposure time

Compound: CCCCCCCCCCCC(=O)N[C@@H](CCCN=C(N)N)C(=O)OCC.Cl [LAE, ethyl ester of the laurylamide of the L-arginine monohydrochloride]
- toxicity [1]: completely harmless
- absorption and metabolism [2]: fast absorption and metabolism
- action on microorganisms (proliferation) [3]: preventing their proliferation
